Consider 2 molecules from ChEMBL document CHEMBL4507327 (2021).

pIC50: −log10 of the molar value.

For data set [1], the target named is Beta-2 adrenergic receptor (Homo sapiens) (UniProt P07550). The following applies: Compound concentration 10.0 uM.
Data set [2] has as its target Serine/threonine-protein kinase SIK1 (Homo sapiens, UniProt P57059). Description: SIK(SIK1LHY1) Takeda global kinase panel.
In data set [3] the target is T1, GABA-A receptor; anion channel (Rattus norvegicus) (UniProt O09028+P15431+P18506+P18508+P19969+P20236+P23574+P23576+P28471+P28473+P30191+P62813+P63079+P63138+Q91ZM7+Q9ES14). The following applies: Compound concentration 10.0 uM.
Data set [4] deals with Platelet-activating factor receptor (Homo sapiens) (UniProt P25105). Description: Platelet Activating Factor (PAF) Eurofins-Panlabs radioligand binding assay. Also noted: ligand concentration 1 nM. The following applies: Compound concentration 10.0 uM.
For data set [5], the target named is Histamine H4 receptor (Homo sapiens) (UniProt Q9H3N8). The conditions noted are these: Compound concentration 10.0 uM.
Data set [6] concerns the target Kappa-type opioid receptor (Homo sapiens) (UniProt P41145). The conditions noted are these: Compound concentration 10.0 uM.
In data set [7] the target is Sigma non-opioid intracellular receptor 1 (Homo sapiens) (UniProt Q99720). The conditions noted are these: Compound concentration 10.0 uM.
Data set [8] concerns the target STE20/SPS1-related proline-alanine-rich protein kinase (Homo sapiens, UniProt Q9UEW8). Description: STLK3(ST39LGRJ) Takeda global kinase panel.
Data set [9] has as its target Mitogen-activated protein kinase 4 (Homo sapiens, UniProt P31152). As to the kind of experiment: ERK4(MAP4LGY1) Takeda global kinase panel.
In data set [10] the target is Alpha-2A adrenergic receptor (Homo sapiens) (UniProt P08913). The following applies: Compound concentration 10.0 uM.
The target in data set [11] is T1, GABA-A receptor; anion channel (Rattus norvegicus). The following applies: Compound concentration 10.0 uM. This is another data set of the same source.
Data set [12] has as its target Beta-1 adrenergic receptor (Homo sapiens) (UniProt P08588). The conditions noted are these: Compound concentration 10.0 uM.
The target of data set [13] is 5-hydroxytryptamine receptor 5A (Homo sapiens) (UniProt P47898). The following applies: Compound concentration 10.0 uM.
Data set [14] has as its target Prostaglandin E2 receptor EP4 subtype (Homo sapiens) (UniProt P35408). As to the kind of experiment: Inhibition of Prostanoid EP4 at 10 µM in the Eurofins-Panlabs radioligand binding assay (Eurofins_assay_268420). The conditions noted are these: Compound concentration 10.0 uM. Also noted: ligand concentration 1 nM.
In data set [15] the target is Mitogen-activated protein kinase kinase kinase kinase 4 (Homo sapiens, UniProt O95819). As to the kind of experiment: HGK [ZC1(M4K4CGP1)] Takeda global kinase panel.
For data set [16], the target named is T2, 5-hydroxytryptamine receptor 3A (Homo sapiens) (UniProt P46098).
T2 sequence (whole entry): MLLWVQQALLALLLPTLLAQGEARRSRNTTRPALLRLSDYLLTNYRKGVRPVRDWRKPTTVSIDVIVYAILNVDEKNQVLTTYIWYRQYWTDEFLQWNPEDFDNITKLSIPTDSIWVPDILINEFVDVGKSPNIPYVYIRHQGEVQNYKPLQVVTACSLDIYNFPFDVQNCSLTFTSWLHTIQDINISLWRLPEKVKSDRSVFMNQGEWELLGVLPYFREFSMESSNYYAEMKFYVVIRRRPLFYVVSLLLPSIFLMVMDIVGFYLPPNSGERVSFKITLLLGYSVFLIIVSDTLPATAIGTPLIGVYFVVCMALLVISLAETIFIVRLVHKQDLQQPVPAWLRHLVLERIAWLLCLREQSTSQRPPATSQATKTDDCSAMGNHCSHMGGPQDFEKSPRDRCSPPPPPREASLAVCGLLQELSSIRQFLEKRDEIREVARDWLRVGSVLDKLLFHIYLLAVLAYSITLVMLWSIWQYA
The following applies: Compound concentration 10.0 uM.

Data set [17] deals with Alpha-2B adrenergic receptor (Homo sapiens) (UniProt P18089). The conditions noted are these: Compound concentration 10.0 uM.
The target of data set [18] is Serine/threonine-protein kinase 16 (Homo sapiens, UniProt O75716). As to the kind of experiment: MPSK1(ST16LGF1) Takeda global kinase panel.
Data set [19] concerns the target Calcium/calmodulin-dependent protein kinase kinase 1 (Homo sapiens, UniProt Q8N5S9). Description: CAMKK1(CAK1LGT5) Takeda global kinase panel.
In a further data set the target is Misshapen-like kinase 1 (Homo sapiens, UniProt Q8N4C8). Description: MINK [ZC3(MIN1LGF1)] Takeda global kinase panel.
For a further data set, the target named is Tribbles homolog 1 (Homo sapiens, UniProt Q96RU8). Description: Trb1(TRI1PARP) Takeda global kinase panel.
For data set [20], the target named is Serine/threonine-protein kinase 38 (Homo sapiens, UniProt Q15208). Description: NDR1(ST38LGF1) Takeda global kinase panel.
Data set [21] concerns the target Receptor-interacting serine/threonine-protein kinase 4 (Homo sapiens, UniProt P57078). As to the kind of experiment: ANKRD3(RIP4LGN1) Takeda global kinase panel.
The target of a further data set is hERG (KCNH2) (Homo sapiens, UniProt Q12809). Description: Inhibition of Potassium Channel hERG at 10 µM in the Eurofins-Panlabs radioligand binding assay (Eurofins_assay_265900). Details: ligand concentration 1.5 nM, non-specific ligand with concentration Astemizole, incubation time 60 min, incubation temperature 25 °C. The following applies: HEK-293 cells that express human recombinant hERG, probe [3H] Astemizole, compound concentration 10 uM.

The target in data set [22] is Inhibitor of nuclear factor kappa-B kinase subunit epsilon (Homo sapiens, UniProt Q14164). Description: IKKepsilon(IKBELGY1) Takeda global kinase panel.
Data set [23] concerns the target Bromodomain-containing protein 2 (Homo sapiens, UniProt P25440). Description: BRD2(BRD2LHRC) Takeda global kinase panel.
For data set [24], the target named is Inhibitor of nuclear factor kappa-B kinase subunit beta (Homo sapiens, UniProt O14920). Description: IKKbeta(IKBBLHY1) Takeda global kinase panel.
Data set [25] addresses Tyrosine-protein kinase receptor TYRO3 (Homo sapiens, UniProt Q06418). As to the kind of experiment: Tyro3 [Sky(TYR3LGY1)] Takeda global kinase panel.
Data set [26] concerns the target Tyrosine-protein kinase Lyn (Homo sapiens, UniProt P07948). As to the kind of experiment: Lyn(LYN1LGF1) Takeda global kinase panel.
Data set [27] addresses Calcium/calmodulin-dependent protein kinase type II subunit gamma (Homo sapiens, UniProt Q13555). As to the kind of experiment: CaMK2gamma(CA2GLGT5) Takeda global kinase panel.
For data set [28], the target named is Ribosomal protein S6 kinase alpha-3 (Homo sapiens, UniProt P51812). Description: RSK2(R6A3CGE1) Takeda global kinase panel.
Data set [29] deals with Homeodomain-interacting protein kinase 3 (Homo sapiens, UniProt Q9H422). As to the kind of experiment: HIPK3(HIP3LGF1) Takeda global kinase panel.

Ribosomal protein S6 kinase alpha-3, sequence (P51812 whole entry): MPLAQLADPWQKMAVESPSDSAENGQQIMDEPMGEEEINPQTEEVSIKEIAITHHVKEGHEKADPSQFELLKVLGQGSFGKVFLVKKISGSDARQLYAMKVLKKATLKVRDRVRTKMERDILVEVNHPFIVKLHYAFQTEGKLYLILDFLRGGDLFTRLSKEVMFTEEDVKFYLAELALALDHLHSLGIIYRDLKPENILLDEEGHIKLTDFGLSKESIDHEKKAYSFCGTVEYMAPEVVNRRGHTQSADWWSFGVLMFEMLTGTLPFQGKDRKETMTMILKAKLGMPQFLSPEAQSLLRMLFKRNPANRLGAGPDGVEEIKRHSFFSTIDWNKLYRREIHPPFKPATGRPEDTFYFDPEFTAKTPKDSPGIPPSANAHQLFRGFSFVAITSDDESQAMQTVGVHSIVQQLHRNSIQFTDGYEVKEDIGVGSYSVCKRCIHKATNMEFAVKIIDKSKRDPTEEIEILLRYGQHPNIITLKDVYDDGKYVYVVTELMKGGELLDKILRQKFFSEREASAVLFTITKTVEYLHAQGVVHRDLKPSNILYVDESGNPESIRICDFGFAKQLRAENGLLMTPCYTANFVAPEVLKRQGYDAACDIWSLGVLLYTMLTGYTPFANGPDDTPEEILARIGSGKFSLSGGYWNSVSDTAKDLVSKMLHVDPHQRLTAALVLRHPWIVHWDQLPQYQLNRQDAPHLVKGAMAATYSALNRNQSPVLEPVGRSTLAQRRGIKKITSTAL
hERG (KCNH2), sequence (Q12809 whole entry): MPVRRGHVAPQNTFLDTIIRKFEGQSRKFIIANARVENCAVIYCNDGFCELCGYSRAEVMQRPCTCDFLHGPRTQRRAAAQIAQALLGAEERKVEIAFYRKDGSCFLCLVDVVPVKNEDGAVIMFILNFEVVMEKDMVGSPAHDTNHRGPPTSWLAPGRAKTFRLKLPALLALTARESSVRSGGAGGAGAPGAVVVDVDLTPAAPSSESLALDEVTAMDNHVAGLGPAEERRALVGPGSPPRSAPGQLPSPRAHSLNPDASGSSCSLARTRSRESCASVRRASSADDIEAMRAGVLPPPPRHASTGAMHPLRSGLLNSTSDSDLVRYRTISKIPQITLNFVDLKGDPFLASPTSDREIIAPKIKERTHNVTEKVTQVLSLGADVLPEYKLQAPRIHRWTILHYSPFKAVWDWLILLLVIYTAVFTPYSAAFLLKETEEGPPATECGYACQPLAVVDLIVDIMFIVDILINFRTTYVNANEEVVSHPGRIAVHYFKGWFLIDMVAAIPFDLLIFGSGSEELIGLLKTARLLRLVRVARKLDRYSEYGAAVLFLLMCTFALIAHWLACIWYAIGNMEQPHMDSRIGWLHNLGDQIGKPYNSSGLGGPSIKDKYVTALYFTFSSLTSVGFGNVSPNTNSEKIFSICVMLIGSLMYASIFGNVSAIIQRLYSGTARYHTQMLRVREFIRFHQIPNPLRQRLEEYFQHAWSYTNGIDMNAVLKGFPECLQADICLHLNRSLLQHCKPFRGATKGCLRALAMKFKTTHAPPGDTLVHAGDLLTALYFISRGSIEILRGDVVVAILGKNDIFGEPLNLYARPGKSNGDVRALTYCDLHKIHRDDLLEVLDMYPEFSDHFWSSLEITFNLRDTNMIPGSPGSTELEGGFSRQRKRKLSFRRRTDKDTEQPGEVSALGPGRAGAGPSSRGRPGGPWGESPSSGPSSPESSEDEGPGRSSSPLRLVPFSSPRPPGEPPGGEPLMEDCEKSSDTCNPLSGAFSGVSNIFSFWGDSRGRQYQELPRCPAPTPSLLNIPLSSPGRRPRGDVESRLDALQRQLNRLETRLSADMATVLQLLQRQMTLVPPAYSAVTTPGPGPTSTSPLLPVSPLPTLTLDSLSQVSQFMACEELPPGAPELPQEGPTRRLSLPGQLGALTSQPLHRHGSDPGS
Alpha-2A adrenergic receptor (Homo sapiens), sequence (P08913 whole entry): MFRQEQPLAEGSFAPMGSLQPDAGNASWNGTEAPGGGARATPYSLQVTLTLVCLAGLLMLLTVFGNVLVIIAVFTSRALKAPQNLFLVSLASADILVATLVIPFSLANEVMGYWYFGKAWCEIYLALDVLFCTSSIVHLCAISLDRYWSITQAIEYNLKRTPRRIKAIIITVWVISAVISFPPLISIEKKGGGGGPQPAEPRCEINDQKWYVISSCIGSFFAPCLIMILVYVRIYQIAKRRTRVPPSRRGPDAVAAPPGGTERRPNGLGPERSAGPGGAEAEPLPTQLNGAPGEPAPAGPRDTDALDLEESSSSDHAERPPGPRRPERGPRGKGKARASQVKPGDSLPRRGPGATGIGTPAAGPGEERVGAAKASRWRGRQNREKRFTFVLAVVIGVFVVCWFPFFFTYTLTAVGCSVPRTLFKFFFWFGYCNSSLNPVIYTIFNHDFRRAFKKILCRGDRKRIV
Kappa-type opioid receptor (Homo sapiens), sequence (P41145 whole entry): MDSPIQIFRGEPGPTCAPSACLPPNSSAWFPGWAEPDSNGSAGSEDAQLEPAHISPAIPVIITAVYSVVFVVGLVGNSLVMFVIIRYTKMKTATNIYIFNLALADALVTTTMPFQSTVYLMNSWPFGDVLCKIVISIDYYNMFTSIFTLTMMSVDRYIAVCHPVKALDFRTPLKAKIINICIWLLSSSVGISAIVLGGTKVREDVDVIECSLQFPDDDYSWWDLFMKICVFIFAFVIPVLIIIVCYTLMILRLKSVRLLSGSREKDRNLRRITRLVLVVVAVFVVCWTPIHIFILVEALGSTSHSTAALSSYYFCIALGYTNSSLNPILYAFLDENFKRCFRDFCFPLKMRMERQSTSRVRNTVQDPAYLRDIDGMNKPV
Receptor-interacting serine/threonine-protein kinase 4, sequence (P57078 whole entry): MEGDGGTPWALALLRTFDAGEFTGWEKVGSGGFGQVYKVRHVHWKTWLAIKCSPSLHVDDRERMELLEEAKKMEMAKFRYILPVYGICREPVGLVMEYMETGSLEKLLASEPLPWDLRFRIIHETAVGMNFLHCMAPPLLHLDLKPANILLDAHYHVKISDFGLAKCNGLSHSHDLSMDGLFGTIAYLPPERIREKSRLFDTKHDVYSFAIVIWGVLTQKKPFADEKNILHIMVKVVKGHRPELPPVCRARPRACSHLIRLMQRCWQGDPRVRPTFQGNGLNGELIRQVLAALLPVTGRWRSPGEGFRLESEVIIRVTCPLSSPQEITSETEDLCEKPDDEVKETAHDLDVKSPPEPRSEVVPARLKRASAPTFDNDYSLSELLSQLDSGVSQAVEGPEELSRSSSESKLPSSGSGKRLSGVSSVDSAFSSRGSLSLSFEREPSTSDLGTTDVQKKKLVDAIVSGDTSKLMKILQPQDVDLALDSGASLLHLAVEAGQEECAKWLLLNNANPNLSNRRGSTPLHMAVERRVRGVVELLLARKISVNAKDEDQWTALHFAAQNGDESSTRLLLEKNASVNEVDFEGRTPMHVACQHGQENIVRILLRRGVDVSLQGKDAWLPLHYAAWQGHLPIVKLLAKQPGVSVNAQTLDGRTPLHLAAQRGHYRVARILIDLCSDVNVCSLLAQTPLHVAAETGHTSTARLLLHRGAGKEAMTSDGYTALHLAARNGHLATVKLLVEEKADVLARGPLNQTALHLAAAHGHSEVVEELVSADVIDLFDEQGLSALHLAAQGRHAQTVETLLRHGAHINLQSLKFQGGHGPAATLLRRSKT
Serine/threonine-protein kinase 38, sequence (Q15208 whole entry): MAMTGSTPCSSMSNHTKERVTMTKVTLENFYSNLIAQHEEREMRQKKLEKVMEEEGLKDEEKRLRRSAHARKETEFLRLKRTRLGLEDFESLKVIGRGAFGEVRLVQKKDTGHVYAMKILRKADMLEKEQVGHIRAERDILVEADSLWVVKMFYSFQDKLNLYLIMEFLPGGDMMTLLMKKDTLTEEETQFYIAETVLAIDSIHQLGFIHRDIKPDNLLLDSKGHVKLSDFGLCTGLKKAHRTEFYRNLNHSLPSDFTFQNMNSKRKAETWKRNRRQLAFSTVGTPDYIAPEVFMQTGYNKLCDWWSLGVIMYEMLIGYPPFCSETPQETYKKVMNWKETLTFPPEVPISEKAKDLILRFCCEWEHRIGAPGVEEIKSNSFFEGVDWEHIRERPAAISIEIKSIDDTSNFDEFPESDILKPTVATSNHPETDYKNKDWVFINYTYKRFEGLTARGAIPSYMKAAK
Mitogen-activated protein kinase 4, sequence (P31152 whole entry): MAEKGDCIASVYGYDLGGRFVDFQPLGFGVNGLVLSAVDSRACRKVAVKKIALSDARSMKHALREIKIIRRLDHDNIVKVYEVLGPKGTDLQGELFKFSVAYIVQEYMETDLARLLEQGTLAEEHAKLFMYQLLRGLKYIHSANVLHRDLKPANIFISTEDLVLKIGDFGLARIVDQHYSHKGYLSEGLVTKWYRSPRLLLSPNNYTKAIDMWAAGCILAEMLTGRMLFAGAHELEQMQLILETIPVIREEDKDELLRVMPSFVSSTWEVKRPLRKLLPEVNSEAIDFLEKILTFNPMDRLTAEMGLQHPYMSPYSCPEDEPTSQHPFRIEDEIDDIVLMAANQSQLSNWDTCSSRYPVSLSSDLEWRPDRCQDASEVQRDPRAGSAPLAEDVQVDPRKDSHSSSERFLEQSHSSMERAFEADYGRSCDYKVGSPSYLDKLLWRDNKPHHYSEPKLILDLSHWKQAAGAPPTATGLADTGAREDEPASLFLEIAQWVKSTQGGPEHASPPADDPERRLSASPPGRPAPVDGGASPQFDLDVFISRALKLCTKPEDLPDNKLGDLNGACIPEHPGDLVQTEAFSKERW
Beta-2 adrenergic receptor (Homo sapiens), sequence (P07550 whole entry, looked up): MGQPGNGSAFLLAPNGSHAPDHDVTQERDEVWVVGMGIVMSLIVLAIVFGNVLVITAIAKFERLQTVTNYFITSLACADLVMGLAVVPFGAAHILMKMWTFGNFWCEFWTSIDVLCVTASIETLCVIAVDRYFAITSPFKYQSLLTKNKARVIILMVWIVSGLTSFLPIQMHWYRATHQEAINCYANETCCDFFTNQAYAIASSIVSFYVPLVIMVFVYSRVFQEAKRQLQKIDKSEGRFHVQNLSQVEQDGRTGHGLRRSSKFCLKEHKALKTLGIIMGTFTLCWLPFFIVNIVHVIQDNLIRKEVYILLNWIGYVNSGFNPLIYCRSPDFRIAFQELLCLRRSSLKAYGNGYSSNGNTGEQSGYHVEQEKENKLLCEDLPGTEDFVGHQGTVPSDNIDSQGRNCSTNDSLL

On to `CN1C(=O)[C@@H](N2CCc3cn(Cc4ccccc4)nc3C2=O)COc2ccccc21` [TP-030-1], for which the inhibition was 9.59% in data set [1]; -3.98% in data set [3]; 2% in [4]; 6.09% in data set [5]; 14.7% in data set [6]; -1.9% in [7]. The inhibition in data set [10] was 19.1%; in data set [11], 10.5%; in data set [12], 5.21%; in data set [13], 21.1%; in data set [14], 12%; in data set [16], 40.8%. Further, the inhibition in data set [17] is 43.3%. Also, the pIC50 in data set [2], in data set [8], in data set [9] and in data set [15] was 6.00 in each case.
With `CN1C(=O)[C@@H](N2CCc3cn(CC4CCS(=O)(=O)CC4)nc3C2=O)COc2ccccc21` [TP-030n], the pIC50 (in [18]; in data set [19]; against Misshapen-like kinase 1; against Tribbles homolog 1; in [20]; in data set [21]) was 6.00 throughout. In addition, the pIC50 in [22], in data set [23], in data set [24], in data set [25], in data set [26] and in [27] was 6.00 throughout. Also, the pIC50 in data set [28] and in data set [29] was 6.00 in each case. Moreover, the inhibition at 60 min, 10 µM on hERG (KCNH2) was 11% (not active).
